Values after ≈ are worked out from the molar mass of the structure shown. Where a SMILES comes first, the peptide text is derived from it.
What was measured:
E. coli ATCC 13762 = type: cell-based, Escherichia coli
Description: (§1) The antimicrobial activity of peptide γ2 was evaluated versus Pseudomonas aeruginosa ATCC 27853, Escherichia coli ATCC 13762 and Staphylococcus aureus ATCC 6538, and versus multidrug-resistant (MDR) clinical isolates of Methicillin-Resistant Staphylococcus aureus (MRSA), extended-spectrum β-lactamase (ESBL)-producing E. coli, P. aeruginosa and Acinetobacter baumannii complex. The isolates were identified by mass spectrometry using the MALDI (matrix-assisted laser desorption/ionisation) mass spectrometer and the biochemical phenotyping method in a VITEKR 2 bioMérieux system (bioMérieux Italia S.p.a., Bagno a Ripoli, Florence, Italy), according to the manufacturer's instructions. The antibiotic susceptibility profile was evaluated with the VITEKR 2 bioMérieux System. The microorganisms were cultured in broth and agar at 37° C. The media used were BD Brain Heart Infusion broth (BHI) (BD, Franklin Lakes, NJ, USA) and BHI agar (OXOID, Basingstoke, Hampshire, UK), BD Trypticase Soy agar with 5% sheep's blood and MacConkey agar (OXOID, Basingstoke, Hampshire, UK). The isolates were stored frozen at −80° C. in BHI broth supplemented with 10% (v/v) glycerol (Carlo Erba Reagents, Milan, Italy) until use, and the work cultures were activated in the respective broths at 37° C. for 15-18 h.
(§2) Assays of the antibacterial activity of peptide γ2, in both reduced and oxidised form, were conducted against P. aeruginosa ATCC 27853, E. coli ATCC 13762, S. aureus ATCC 6538 and MDR clinical isolates. The strains were cultured under aerobic conditions in BHI broth at 37° C. and incubated with peptide γ2 for 2 hours at 37° C. Various concentrations of peptide were used, ranging from 1 μM to 128 μM. Each test was conducted in triplicate with three independent cultures. The minimum inhibitory concentration (MIC) and the minimum bactericidal concentration (MBC) of the peptide were determined with a modified version of the Clinical and Laboratory Standards Institute broth microdilution assay, using a final inoculum concentration of 10^5 CFU/ml, as previously described (Scudiero O et al., Antimicrob Agents Chemother 2010; 54:2312-22; Scudiero O et al. Antimicrob Ag Chemother 2013; 57:1701-8).
(§3) The MIC is indicated by the concentration interval, which comprise the upper growth limit and the first concentration which could not support visible bacterial growth after incubation. The MBC was defined as the lowest concentration at which no viable colonies were observed. The peptide concentrations were 128.0, 64.0, 32.0, 16.0, 8.0, 4.0, 2.0 and 1 μM. For the time-kill studies against the ATCC and MDR strains, the bacteria were cultured in BHI broth until the late log growth phase at 37° C. The bacterial suspensions, containing about 10^6 CFU/ml (adjusted by the spectrophotometer to OD600 nm), were diluted 1:100 in PBS1× and then incubated at 37° C. with or without the peptide, selected at concentrations corresponding to 1, 2 and 4×MIC (as determined above). At baseline and 1, 2, 3 and 5 hours after incubation, a portion of each sample was harvested, diluted in series in PBS1× and seeded on BHI agar. The plates were incubated for […] at 37° C., and the viable bacteria count was conducted by the CFU method. All the data were expressed as mean±SD of three independent experiments.

E. coli ESBL strain 1 = type: cell-based, Escherichia coli
Description: as §1, §2, §3

E. coli ESBL strain 2 = type: cell-based, Escherichia coli
Description: as §1, §2, §3

[1] = tested on: P. aeruginosa MDR strain 1; type: cell-based, Pseudomonas aeruginosa
Description: as §1, §2, §3

[2] = tested on: P. aeruginosa MDR strain 2; type: cell-based, Pseudomonas aeruginosa
Description: as §1, §2, §3

P. aeruginosa ATCC 27853 = type: cell-based, Pseudomonas aeruginosa
Description: as §1, §2, §3

[3] = tested on: S. aureus ATCC 6538 (intracellular, HeLa cells); test: Invasion and protection assay in HeLa cells; type: cell-based, Staphylococcus aureus; conditions: wild-type strain S. aureus ATCC 6538 in HeLa cells; 40 μM for 1 h; all times tested
Description: (§4) The S. aureus ATCC 6538, MRSA strain 2 and MRSA strain 3 invasion assays were conducted as previously described (Colicchio R et al., Antimicrob Agents Chemother 2015; 59:7637-49; Spinosa M R et al. Infect Immun 2007; 75:3594-3603). HeLa cells (ATCC CCL-2) were used for the standard invasion and intracellular viability assays. The cells were cultured in DMEM with 2 mM L-glutamine. The cells were infected at a multiplicity of infection (MOI) of 50 for 1 h, washed twice with PBS1× to eliminate most of the extracellular bacteria, exposed to gentamicin (Sigma-Aldrich) to kill the remaining extracellular bacteria, and then destroyed with saponin (0.5%) to release the intracellular bacteria. To quantify the intracellular staphylococci released by the HeLa cells, the lysed cell suspension was plated on BHI agar, and the number of CFUs was counted the next day. When required, cells were re-incubated in the cell culture medium for various times (3 and 5 hours) after treatment with gentamicin. Treatment with gentamicin was conducted using 105 μM, a concentration 10 times higher than the MIC, for 30 minutes at 37° C. with 5% CO2. Cells were then washed thoroughly with PBS1× to remove the gentamicin and dead extracellular bacteria, and then lysed or re-incubated with medium. To evaluate the protection with the reduced peptide γ2 after treatment with gentamicin, the molecule was added to the sample at the final concentration of 40 µM for 1 hour, then washed twice with PBS1×, and finally destroyed with saponin. As the antibacterial activity of the reduced and oxidised peptide γ2 against S. aureus ATCC 6538 was very similar (Table 1), only the reduced form was used in the test. In all the experiments, the bacteria were centrifuged (60×g) on the cells to start the assay. The experiments were conducted in triplicate, and the data were expressed as mean±SD.

[4] = tested on: MRSA strain 3 (intracellular, HeLa cells); test: Invasion and protection assay in HeLa cells; type: cell-based, Staphylococcus aureus; conditions: MRSA 3 strain in HeLa cells; 40 μM for 1 h; all times tested
Description: as §4

[5] = tested on: MRSA strain 2 (intracellular, HeLa cells); test: Invasion and protection assay in HeLa cells; type: cell-based, Staphylococcus aureus; conditions: MRSA 2 strain in HeLa cells; 40 μM for 1 h
Description: as §4

MIC (E. coli ATCC 13762): 2 µM (≈ 4.92 µg/mL)
MIC (E. coli ESBL strain 1): 2 µM (≈ 4.92 µg/mL)
MIC (E. coli ESBL strain 2): 2 µM (≈ 4.92 µg/mL)
MIC [2]: 1 µM (≈ 2.46 µg/mL)
SMILES: CC[C@H](C)[C@H](NC(=O)[C@H](CCC(N)=O)NC(=O)[C@H](CCCNC(=N)N)NC(=O)[C@H](CCCNC(=N)N)NC(=O)[C@H](CCCCN)NC(=O)[C@@H]1CCCN1C(=O)[C@H](CC(C)C)NC(=O)[C@H](CS)NC(C)=O)C(=O)NCC(=O)N[C@@H](CCCCN)C(=O)N[C@@H](CO)C(=O)N[C@@H](CO)C(=O)N[C@H](C(=O)N[C@@H](CCCNC(=N)N)C(=O)NCC(=O)N[C@@H](CCCNC(=N)N)C(=O)N[C@@H](CCCCN)C(=O)N[C@@H](CO)C(=O)N[C@@H](CS)C(=O)N[C@@H](CCCCN)C(=O)N[C@@H](CCCCN)C(N)=O)[C@@H](C)O [Reduced peptide γ2] (Ac-CLPKRRQIGKSSTRGRKSCKK-NH2)
MBC (E. coli ATCC 13762): 2 µM (≈ 4.92 µg/mL)
MBC (E. coli ESBL strain 1): 2 µM (≈ 4.92 µg/mL)
MBC (E. coli ESBL strain 2): 16 µM (≈ 39.3 µg/mL)
MBC [1]: 64 µM (≈ 157 µg/mL)
MBC [2]: 1 µM (≈ 2.46 µg/mL)
MBC (P. aeruginosa ATCC 27853): 1 µM (≈ 2.46 µg/mL)
viable intracellular bacteria (CFU) [3]: great reduction in viable intracellular bacteria
viable intracellular bacteria (CFU) [4]: great reduction in viable intracellular bacteria
viable intracellular bacteria (CFU) [5]: bacteriostatic effect

From patent US20240417435A1, “DEFENSIN-DERIVED PEPTIDE WITH ANTIBACTERIAL ACTIVITY ALSO AGAINST MULTI-ANTIBIOTIC-RESISTANT BACTERIA” (priority 2021, published 2024)
